Assay results: article PMC7582776 (Molecules, 2020)
pIC50, pKi: −log10 of the molar value.

How the values were obtained:
OATP1B1 [1] = target: T1, OATP1B1 (Homo sapiens, UniProt Q9Y6L6); assay: [3H]estrone-3-sulfate uptake in HEK293-OATP1B1 cells; assay type: cell-based
T1 construct: gene SLCO1B1; transiently overexpressed in HEK293 cells (Corning)
T1 sequence (Q9Y6L6 1-691): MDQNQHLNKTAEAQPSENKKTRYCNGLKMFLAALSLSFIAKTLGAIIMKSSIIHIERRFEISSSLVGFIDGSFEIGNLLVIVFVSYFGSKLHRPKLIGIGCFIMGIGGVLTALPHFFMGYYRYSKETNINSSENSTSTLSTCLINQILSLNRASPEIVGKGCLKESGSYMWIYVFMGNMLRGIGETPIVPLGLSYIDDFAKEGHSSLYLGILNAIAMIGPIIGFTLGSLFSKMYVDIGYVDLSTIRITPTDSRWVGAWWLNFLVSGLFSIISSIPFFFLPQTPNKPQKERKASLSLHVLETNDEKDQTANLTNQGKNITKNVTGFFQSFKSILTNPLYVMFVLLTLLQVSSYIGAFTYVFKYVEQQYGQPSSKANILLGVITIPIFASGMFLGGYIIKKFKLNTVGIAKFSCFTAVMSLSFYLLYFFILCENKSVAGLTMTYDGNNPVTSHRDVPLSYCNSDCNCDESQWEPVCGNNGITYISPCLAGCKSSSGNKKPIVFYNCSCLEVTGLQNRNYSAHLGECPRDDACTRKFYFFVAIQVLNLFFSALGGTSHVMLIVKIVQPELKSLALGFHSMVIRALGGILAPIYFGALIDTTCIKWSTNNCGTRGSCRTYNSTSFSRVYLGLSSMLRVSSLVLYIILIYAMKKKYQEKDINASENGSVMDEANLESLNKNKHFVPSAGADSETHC

CYP2B6 [2] = target: T2, CYP2B6 (Homo sapiens, UniProt P20813); assay: LC-MS/MS, bupropion hydroxylation; assay type: biochemical
T2 construct: native enzyme in ultrapooled human liver microsomes
T2 sequence (P20813 1-491): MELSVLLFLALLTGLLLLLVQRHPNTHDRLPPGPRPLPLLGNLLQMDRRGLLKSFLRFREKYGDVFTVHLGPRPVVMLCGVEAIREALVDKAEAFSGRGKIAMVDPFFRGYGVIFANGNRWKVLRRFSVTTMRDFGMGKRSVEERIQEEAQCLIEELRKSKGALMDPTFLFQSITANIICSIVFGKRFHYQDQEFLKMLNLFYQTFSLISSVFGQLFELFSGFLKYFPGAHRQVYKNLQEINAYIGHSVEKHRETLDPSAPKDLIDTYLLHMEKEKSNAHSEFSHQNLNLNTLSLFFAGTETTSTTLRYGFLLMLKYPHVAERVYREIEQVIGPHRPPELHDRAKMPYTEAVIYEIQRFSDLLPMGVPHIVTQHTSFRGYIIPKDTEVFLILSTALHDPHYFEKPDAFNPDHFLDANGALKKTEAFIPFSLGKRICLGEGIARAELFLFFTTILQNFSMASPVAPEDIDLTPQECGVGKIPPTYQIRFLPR
From the text: LC-MS/MS, bupropion hydroxylation on CYP2B6

CYP2C8 [3] = target: T3, CYP2C8 (Homo sapiens, UniProt P10632); assay: LC-MS/MS, amodiaquine N-de-ethylation, Lineweaver-Burk/Dixon; assay type: biochemical
T3 construct: native enzyme in ultrapooled human liver microsomes
T3 sequence (P10632 1-490): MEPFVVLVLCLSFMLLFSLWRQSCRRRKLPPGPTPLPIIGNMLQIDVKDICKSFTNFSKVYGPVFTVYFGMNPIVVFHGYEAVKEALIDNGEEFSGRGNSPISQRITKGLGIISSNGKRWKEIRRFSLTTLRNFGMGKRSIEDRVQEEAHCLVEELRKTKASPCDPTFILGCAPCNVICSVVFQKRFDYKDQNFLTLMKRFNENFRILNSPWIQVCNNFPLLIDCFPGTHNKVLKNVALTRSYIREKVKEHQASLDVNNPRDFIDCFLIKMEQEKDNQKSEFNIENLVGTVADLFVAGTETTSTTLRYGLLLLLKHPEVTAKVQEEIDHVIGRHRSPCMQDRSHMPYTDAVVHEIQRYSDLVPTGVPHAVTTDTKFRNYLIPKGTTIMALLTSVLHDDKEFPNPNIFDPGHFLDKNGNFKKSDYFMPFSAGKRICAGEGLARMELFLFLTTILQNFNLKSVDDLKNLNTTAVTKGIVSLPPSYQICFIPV
From the text: LC-MS/MS, amodiaquine N-de-ethylation, Lineweaver-Burk/Dixon on CYP2C8

CYP2C9 [4] = target: T4, CYP2C9 (Homo sapiens, UniProt P11712); assay: LC-MS/MS, diclofenac (substrate cocktail); assay type: biochemical
T4 construct: native enzyme in ultrapooled human liver microsomes
T4 sequence (P11712 whole entry): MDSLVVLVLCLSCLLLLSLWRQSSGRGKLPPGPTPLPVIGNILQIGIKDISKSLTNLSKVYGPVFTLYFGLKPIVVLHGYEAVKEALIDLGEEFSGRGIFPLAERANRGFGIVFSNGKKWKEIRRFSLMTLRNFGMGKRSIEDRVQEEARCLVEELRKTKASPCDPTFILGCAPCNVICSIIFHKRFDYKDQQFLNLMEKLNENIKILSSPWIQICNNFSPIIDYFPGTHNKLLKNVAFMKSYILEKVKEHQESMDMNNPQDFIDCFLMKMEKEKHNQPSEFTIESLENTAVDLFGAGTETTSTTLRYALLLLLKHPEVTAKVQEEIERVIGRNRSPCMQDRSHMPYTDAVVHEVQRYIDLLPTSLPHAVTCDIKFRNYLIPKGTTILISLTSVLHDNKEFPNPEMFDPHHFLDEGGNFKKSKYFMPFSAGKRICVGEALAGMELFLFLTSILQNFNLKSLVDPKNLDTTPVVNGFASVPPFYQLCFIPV

CYP2C8 [5] = target: T3, CYP2C8; assay: LC-MS/MS, amodiaquine N-de-ethylation (substrate cocktail); assay type: biochemical
From the text: LC-MS/MS, amodiaquine N-de-ethylation (substrate cocktail) on CYP2C8

CYP2C19 [6] = target: T5, CYP2C19 (Homo sapiens, UniProt P33261); assay: LC-MS/MS, [S]-mephenytoin (substrate cocktail); assay type: biochemical
T5 construct: native enzyme in ultrapooled human liver microsomes
T5 sequence (P33261 whole entry): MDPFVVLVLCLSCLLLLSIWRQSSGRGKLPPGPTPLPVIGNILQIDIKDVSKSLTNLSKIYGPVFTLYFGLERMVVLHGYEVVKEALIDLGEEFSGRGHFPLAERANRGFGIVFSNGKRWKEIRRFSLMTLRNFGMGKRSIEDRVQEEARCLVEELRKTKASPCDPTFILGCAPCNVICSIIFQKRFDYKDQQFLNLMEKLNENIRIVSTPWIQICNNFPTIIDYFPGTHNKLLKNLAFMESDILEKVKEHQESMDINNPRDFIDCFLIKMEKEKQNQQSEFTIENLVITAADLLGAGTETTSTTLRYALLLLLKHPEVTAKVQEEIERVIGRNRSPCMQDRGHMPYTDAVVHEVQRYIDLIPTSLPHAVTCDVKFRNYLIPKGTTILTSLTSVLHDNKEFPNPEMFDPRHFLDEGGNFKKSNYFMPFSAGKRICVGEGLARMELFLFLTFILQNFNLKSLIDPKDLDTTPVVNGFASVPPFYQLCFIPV

CYP1A2 = target: T6, CYP1A2 (Homo sapiens, UniProt P05177); assay: LC-MS/MS, phenacetin O-de-ethylation (substrate cocktail); assay type: biochemical
T6 construct: native enzyme in ultrapooled human liver microsomes
T6 sequence (P05177 2-516): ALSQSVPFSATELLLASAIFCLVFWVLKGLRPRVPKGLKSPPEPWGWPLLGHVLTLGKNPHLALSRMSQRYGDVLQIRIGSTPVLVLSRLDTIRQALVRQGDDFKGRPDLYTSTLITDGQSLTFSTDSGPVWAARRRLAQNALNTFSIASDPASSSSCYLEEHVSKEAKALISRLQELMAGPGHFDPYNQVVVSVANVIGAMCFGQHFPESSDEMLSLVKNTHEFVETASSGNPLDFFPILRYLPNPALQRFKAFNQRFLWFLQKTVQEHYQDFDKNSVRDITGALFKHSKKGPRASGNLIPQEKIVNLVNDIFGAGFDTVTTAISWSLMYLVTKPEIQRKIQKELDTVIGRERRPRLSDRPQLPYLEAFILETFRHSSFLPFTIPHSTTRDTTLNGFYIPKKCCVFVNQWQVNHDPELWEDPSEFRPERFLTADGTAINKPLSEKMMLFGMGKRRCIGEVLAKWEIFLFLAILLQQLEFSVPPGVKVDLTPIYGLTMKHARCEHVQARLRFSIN
From the text: LC-MS/MS, phenacetin O-de-ethylation (substrate cocktail) on CYP1A2

CYP2C19 [7] = target: T5, CYP2C19; assay: LC-MS/MS, [S]-mephenytoin, Lineweaver-Burk/Dixon; assay type: biochemical
CYP2B6 [8] = target: T2, CYP2B6; assay: LC-MS/MS, bupropion hydroxylation, Lineweaver-Burk/Dixon; assay type: biochemical
From the text: LC-MS/MS, bupropion hydroxylation, Lineweaver-Burk/Dixon on CYP2B6

CYP2C9 [9] = target: T4, CYP2C9; assay: LC-MS/MS, diclofenac, Lineweaver-Burk/Dixon; assay type: biochemical
CYP2D6 [10] = target: T7, CYP2D6 (Homo sapiens, UniProt P10635); assay: LC-MS/MS, bufuralol, Lineweaver-Burk/Dixon; assay type: biochemical
T7 construct: native enzyme in ultrapooled human liver microsomes
T7 sequence (P10635 whole entry): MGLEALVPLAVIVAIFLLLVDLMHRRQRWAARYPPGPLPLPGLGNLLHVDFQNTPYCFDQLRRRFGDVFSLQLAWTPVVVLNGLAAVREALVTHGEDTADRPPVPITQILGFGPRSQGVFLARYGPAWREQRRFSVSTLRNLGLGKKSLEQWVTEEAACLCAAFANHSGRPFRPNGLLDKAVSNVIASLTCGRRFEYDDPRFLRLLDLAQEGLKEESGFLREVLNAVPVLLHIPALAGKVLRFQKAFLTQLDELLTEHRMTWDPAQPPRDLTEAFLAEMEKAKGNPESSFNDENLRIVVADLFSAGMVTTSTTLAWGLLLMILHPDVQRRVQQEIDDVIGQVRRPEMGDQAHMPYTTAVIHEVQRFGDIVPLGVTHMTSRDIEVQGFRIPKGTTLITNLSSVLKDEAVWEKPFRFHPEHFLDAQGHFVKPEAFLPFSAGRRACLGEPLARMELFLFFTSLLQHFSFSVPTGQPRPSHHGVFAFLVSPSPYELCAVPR

OATP1B1 [11] = target: T1, OATP1B1; assay: [3H]estrone-3-sulfate uptake in HEK293-OATP1B1 cells, Lineweaver-Burk; assay type: cell-based
From the text: [3H]estrone-3-sulfate uptake in HEK293-OATP1B1 cells, Lineweaver-Burk on OATP1B1

CYP2D6 [12] = target: T7, CYP2D6; assay: LC-MS/MS, bufuralol (substrate cocktail); assay type: biochemical

`CC(C)[C@H](NC(=O)c1nn(Cc2ccc(F)cc2)c2ccccc12)C(N)=O` [AB-FUBINACA, N-[(1S)-1-(aminocarbonyl)-2-methylpropyl]-1-[(4-fluorophenyl)methyl]-1H-indazole-3-carboxamide] showed a pIC50 (OATP1B1 [1]) of 4.07, a pIC50 (CYP2B6 [2]) of 4.52 and a pKi (CYP2C8 [3]) of 4.70. For the same molecule, the pIC50 (CYP2C9 [4]) was 4.87, the pIC50 (CYP2C8 [5]) was 4.35 and the pIC50 (CYP2C19 [6]) was 4.71. The pIC50 (CYP1A2) was less than 4.00, the pKi (CYP2C19 [7]) was 5.20 and the pKi (CYP2B6 [8]) was 4.82. The pKi (CYP2C9 [9]) was 4.88, the pKi (CYP2D6 [10]) was 4.68 and the pKi (OATP1B1 [11]) was 4.03. The pIC50 (CYP2D6 [12]) was 4.39.
